{
  "source": "patent US9676997B2",
  "about": "“Compositions and methods for stabilizing luminogenic substrates” (Promega Corporation, priority 2014, dated 2017)",
  "format_in_all_cases": "physicochemical",
  "key": {"[1]": {"assay": "Stability of 1.25 mM furimazine in 50% ethanol and 50% propylene glycol with or without 225 mM ATT, in the presence of light, HPLC and Arrhenius plots", "details": "for relative peak area percentage at 262 nm: in the presence of light", "experimental": "The stability of furimazine in the presence and absence of ATT was measured over time at different temperatures. This study was conducted in the presence of light. Specifically, 1.25 mM furimazine was present in a solution of 50% ethanol and 50% propylene glycol (i.e., the solution without ATT) or a solution of 50% ethanol and 50% propylene glycol with 225 mM ATT (i.e., the solution with ATT). […]\nFollowing incubation, high performance liquid chromatography (HPLC) was utilized to identify the components of the respective solutions at each time point. Specifically, an Agilent 1100 HPLC instrument was used and equipped with a quaternary pump, thermostatted autosampler and column compartment, and a G1311B diode-array detector. The column used was a Synergi-MAX-RP (Phenomenex, Torrance, Calif.) 100 AÅ 50×4.6 2.5 μm. The run on the HPLC was a gradient run with 0.1% TFA in water and acetonitrile. Absorbance was measured at 262 nanometers (nm). Standards of furimazine and its known degradants were run to confirm both the retention time and absorbance trace. 5 μl of each solution was injected and the retention time of furimazine at room temperature was 5.1 minutes.\nThe results of the HPLC analysis are shown below in Tables 10 and 11 and FIGS. 4A and 4B, in which the values are reported as relative peak area percentage at 262 nm (i.e., the lamba max of the substrate). […] In each of FIGS. 4A and 4B, diamond is 1.25 mM furimazine incubated over time with or without 225 mM ATT, respectively, at −20° C., triangle is 1.25 mM furimazine incubated over time with or without 225 mM ATT, respectively, at 20° C., star is 1.25 mM furimazine incubated over time with or without 225 mM ATT, respectively, at 40° C., and cross is 1.25 mM furimazine incubated over time with or without 225 mM ATT, respectively, at 60° C.\nAdditionally, Arrhenius plots were generated for furimazine in the presence and absence of ATT to calculate the half-life of furimazine at various temperatures. The Arrhenius equation is as follows: […]\nIn FIG. 5, the slope was −10831.4, the intercept was 31.3561, and R^2 was 0.9813.\nIn FIG. 6, the slope was −10106.2, the intercept was 30.1809, and R^2 was 0.9984."}, "[2]": {"assay": "Photostability of 1.25 mM furimazine in 50% propylene glycol:50% ethanol with or without 225 mM ATT, HPLC", "details": "for 10% loss / 50% loss: in the light", "experimental": "Specifically, a 2× stock solution of ATT in 50% propylene glycol:50% ethanol (v/v) was prepared, in which the final concentration of ATT was 64.4 mg/mL. A 2× stock solution of furimazine in 50% propylene glycol:50% ethanol (v/v) was also prepared, in which the final concentration of furimazine was 0.95 mg/mL. In one vial, the 2×ATT stock solution was diluted 1:1 in the 2×furimazine stock solution to create a solution containing 225 mM ATT and 1.25 mM furimazine. In a second vial, the 2×furimazine stock solution was diluted 1:1 in 50% propylene glycol:50% ethanol (v/v) to create a control solution without the additive ATT (i.e., “no additive furimazine” control) and containing 1.25 mM furimazine.\nThe content of each vial was dispensed into separate, clear HPLC vials with insert and these HPLC vials were placed at room temperature (i.e., about 20° C.) in the light (i.e., in the presence of overhead fluorescent light) and at 40° C. in the light. There was one HPLC vial per time point for each temperature.\nStability was measured by HPLC with 5 μL injection and detection at 262 nm. In each chromatogram, the area of the furimazine peak was determined. Stability curves were generated by plotting the area (10^6) vs. time (days) and are shown in FIGS. 13A and 13B for room temperature and 40° C., respectively."}, "[3]": {"assay": "Stability of 1.25 mM furimazine in DMSO with or without 225 mM ATT, HPLC", "details": "room temperature, 40° C., and 60° C., in the presence of light", "experimental": "To further examine the stabilization of furimazine by ATT, stability of furimazine was measured at room temperature, 40°, and 60° C. in a different organic solvent, namely DMSO. This study was performed in the presence of light.\nSpecifically, a 2× stock solution of ATT in DMSO was prepared, in which the final concentration of ATT was 64.4 mg/mL. A 2× stock solution of furimazine in DMSO was also prepared, in which the final concentration of furimazine was 0.95 mg/mL. In one vial, the 2× ATT stock solution was diluted 1:1 in the 2× furimazine stock solution to create a solution containing 225 mM ATT and 1.25 mM furimazine. In a second vial, furimazine was diluted 1:1 in DMSO to create a control solution without the additive ATT (i.e., “no additive furimazine” control) and containing 1.25 mM furimazine.\nThe content of each vial was dispensed into separate, clear HPLC vials with insert and these HPLC vials were placed at room temperature (i.e., about 20° C.), 40° C., and 60° C. There was one HPLC vial per time point for each temperature.\nStability was measured by HPLC with 5 μL injection and detection at 262 nm. In each chromatogram, the area percentage of furimazine was determined."}},
  "data": [
    {"compound": "Cc1n[nH]c(=S)[nH]c1=O", "note": "[ATT, 6-methyl-3-thioxo-3,4-dihydro-1,2,4-triazin-5(2H)-one]", "values": [
      {"measurement": "stabilization of furimazine against decomposition", "setting": "[1]; 225 mM ATT, over time at different temperatures", "result": "stabilized furimazine against decomposition over time at different temperatures"},
      {"measurement": "stabilization of furimazine against decomposition in the presence of light", "setting": "[2]; 225 mM ATT, room temperature and 40° C.", "result": "stabilized furimazine against decomposition in the presence of light at different temperatures"},
      {"measurement": "stabilization of furimazine in DMSO against decomposition", "setting": "[3]", "result": "stabilized furimazine in DMSO against decomposition at different temperatures"}
    ]},
    {"compound": "O=c1c(Cc2ccco2)nc2c(Cc3ccccc3)[nH]c(-c3ccccc3)cn1-2", "note": "[Furimazine, furimazine]", "values": [
      {"measurement": "relative peak area percentage at 262 nm", "setting": "[1]; 40° C., 0 days", "result": 89.7, "unit": "%"},
      {"measurement": "relative peak area percentage at 262 nm", "setting": "[1]; 40° C., 1 day", "result": 93.8, "unit": "%"},
      {"measurement": "relative peak area percentage at 262 nm", "setting": "[1]; 40° C., 5 days", "result": 65, "unit": "%"},
      {"measurement": "relative peak area percentage at 262 nm", "setting": "[1]; 40° C., 8 days", "result": 50.1, "unit": "%"},
      {"measurement": "relative peak area percentage at 262 nm", "setting": "[1]; 40° C., 14 days", "result": 27, "unit": "%"},
      {"measurement": "relative peak area percentage at 262 nm", "setting": "[1]; 40° C., 30 days", "result": 3.5, "unit": "%"},
      {"measurement": "relative peak area percentage at 262 nm", "setting": "[1]; 40° C., 90 days", "result": 0, "unit": "%"},
      {"measurement": "relative peak area percentage at 262 nm", "setting": "[1]; 60° C., 0 days", "result": 89.7, "unit": "%"},
      {"measurement": "relative peak area percentage at 262 nm", "setting": "[1]; 60° C., 1 day", "result": 70.1, "unit": "%"},
      {"measurement": "relative peak area percentage at 262 nm", "setting": "[1]; 60° C., 5 days", "result": 1.3, "unit": "%^"},
      {"measurement": "relative peak area percentage at 262 nm", "setting": "[1]; 60° C., 8 days", "result": 0, "unit": "%"},
      {"measurement": "relative peak area percentage at 262 nm", "setting": "[1]; 60° C., 14 days", "result": 0, "unit": "%"},
      {"measurement": "relative peak area percentage at 262 nm", "setting": "[1]; 60° C., 30 days", "result": 0, "unit": "%"},
      {"measurement": "relative peak area percentage at 262 nm", "setting": "[1]; 60° C., 90 days", "result": 0, "unit": "%"},
      {"measurement": "relative peak area percentage at 262 nm", "setting": "[1]; RT (20° C.), 0 days", "result": 89.7, "unit": "%"},
      {"measurement": "relative peak area percentage at 262 nm", "setting": "[1]; RT (20° C.), 1 day", "result": 97.2, "unit": "%"},
      {"measurement": "relative peak area percentage at 262 nm", "setting": "[1]; RT (20° C.), 5 days", "result": 93.8, "unit": "%"},
      {"measurement": "relative peak area percentage at 262 nm", "setting": "[1]; RT (20° C.), 8 days", "result": 91.7, "unit": "%"},
      {"measurement": "relative peak area percentage at 262 nm", "setting": "[1]; RT (20° C.), 14 days", "result": 86.7, "unit": "%"},
      {"measurement": "relative peak area percentage at 262 nm", "setting": "[1]; RT (20° C.), 30 days", "result": 74.8, "unit": "%"},
      {"measurement": "relative peak area percentage at 262 nm", "setting": "[1]; RT (20° C.), 90 days", "result": 27.1, "unit": "%"},
      {"measurement": "Arrhenius plot intercept", "setting": "[1]; decomposition of furimazine", "result": 30.1809},
      {"measurement": "Arrhenius plot slope", "setting": "[1]; decomposition of furimazine", "result": "−10106.2"},
      {"measurement": "relative peak area percentage at 262 nm", "setting": "[1]; −20° C., 0 days", "result": 89.7, "unit": "%"},
      {"measurement": "relative peak area percentage at 262 nm", "setting": "[1]; −20° C., 1 day", "result": 98.3, "unit": "%"},
      {"measurement": "relative peak area percentage at 262 nm", "setting": "[1]; −20° C., 5 days", "result": 96.9, "unit": "%"},
      {"measurement": "relative peak area percentage at 262 nm", "setting": "[1]; −20° C., 8 days", "result": 98.2, "unit": "%"},
      {"measurement": "relative peak area percentage at 262 nm", "setting": "[1]; −20° C., 14 days", "result": 97.7, "unit": "%"},
      {"measurement": "relative peak area percentage at 262 nm", "setting": "[1]; −20° C., 30 days", "result": 98.3, "unit": "%"},
      {"measurement": "relative peak area percentage at 262 nm", "setting": "[1]; −20° C., 90 days", "result": 95.3, "unit": "%"},
      {"measurement": "10% loss", "setting": "[2]; 40° C.", "result": 0.4, "unit": "days"},
      {"measurement": "50% loss", "setting": "[2]; 40° C.", "result": 3.6, "unit": "days"},
      {"measurement": "10% loss", "setting": "[2]; room temperature", "result": 0.5, "unit": "days"},
      {"measurement": "50% loss", "setting": "[2]; room temperature", "result": 2.1, "unit": "days"}
    ]}
  ]
}
